4 compounds from ChEMBL document CHEMBL3991601, “The target landscape of clinical kinase drugs” (Science, 2017) can be followed below.

The structures appear in SMILES notation. pKd: −log10 of the molar value. Active and inactive are the calls of the source. Cut-off read from the data, not from the text of the source, for most assays here: actives have a measured Kd and inactives only a lower limit.

One assay deals with T1, Activin receptor type-1 (Homo sapiens, UniProt Q04771).
T1 sequence (Q04771 whole entry): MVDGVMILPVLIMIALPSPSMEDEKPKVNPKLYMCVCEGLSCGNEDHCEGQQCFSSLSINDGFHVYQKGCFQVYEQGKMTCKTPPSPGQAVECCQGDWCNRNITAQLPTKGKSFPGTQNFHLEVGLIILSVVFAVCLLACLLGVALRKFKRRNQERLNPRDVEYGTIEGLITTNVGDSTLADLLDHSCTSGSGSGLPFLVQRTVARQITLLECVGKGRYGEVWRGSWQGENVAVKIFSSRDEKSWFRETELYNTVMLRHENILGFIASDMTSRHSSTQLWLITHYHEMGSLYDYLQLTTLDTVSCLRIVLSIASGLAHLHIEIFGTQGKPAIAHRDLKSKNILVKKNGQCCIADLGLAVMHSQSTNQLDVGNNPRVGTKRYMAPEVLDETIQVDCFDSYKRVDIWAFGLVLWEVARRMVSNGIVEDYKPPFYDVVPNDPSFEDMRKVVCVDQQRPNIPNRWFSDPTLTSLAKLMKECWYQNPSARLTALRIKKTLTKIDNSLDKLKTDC

For assay [1], the target named is T2, AarF domain-containing protein kinase 1 (Homo sapiens, UniProt Q86TW2).
T2 sequence (Q86TW2 whole entry): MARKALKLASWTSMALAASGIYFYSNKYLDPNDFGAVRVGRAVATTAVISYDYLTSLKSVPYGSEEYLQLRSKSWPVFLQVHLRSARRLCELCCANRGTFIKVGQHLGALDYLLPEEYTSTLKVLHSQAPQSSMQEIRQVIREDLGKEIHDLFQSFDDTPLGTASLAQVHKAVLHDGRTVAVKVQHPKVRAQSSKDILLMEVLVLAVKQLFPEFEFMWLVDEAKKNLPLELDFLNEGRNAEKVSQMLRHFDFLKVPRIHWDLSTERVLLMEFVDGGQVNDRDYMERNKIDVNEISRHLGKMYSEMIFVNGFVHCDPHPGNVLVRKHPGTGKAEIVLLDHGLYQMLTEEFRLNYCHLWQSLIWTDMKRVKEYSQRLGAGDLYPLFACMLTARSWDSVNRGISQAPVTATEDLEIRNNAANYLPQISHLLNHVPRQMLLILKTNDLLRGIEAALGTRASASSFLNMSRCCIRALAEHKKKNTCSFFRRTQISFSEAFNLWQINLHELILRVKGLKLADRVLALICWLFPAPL

Assay [2] has as its target T3, Bone morphogenetic protein receptor type-2 (Homo sapiens, UniProt Q13873).
T3 sequence (Q13873 whole entry): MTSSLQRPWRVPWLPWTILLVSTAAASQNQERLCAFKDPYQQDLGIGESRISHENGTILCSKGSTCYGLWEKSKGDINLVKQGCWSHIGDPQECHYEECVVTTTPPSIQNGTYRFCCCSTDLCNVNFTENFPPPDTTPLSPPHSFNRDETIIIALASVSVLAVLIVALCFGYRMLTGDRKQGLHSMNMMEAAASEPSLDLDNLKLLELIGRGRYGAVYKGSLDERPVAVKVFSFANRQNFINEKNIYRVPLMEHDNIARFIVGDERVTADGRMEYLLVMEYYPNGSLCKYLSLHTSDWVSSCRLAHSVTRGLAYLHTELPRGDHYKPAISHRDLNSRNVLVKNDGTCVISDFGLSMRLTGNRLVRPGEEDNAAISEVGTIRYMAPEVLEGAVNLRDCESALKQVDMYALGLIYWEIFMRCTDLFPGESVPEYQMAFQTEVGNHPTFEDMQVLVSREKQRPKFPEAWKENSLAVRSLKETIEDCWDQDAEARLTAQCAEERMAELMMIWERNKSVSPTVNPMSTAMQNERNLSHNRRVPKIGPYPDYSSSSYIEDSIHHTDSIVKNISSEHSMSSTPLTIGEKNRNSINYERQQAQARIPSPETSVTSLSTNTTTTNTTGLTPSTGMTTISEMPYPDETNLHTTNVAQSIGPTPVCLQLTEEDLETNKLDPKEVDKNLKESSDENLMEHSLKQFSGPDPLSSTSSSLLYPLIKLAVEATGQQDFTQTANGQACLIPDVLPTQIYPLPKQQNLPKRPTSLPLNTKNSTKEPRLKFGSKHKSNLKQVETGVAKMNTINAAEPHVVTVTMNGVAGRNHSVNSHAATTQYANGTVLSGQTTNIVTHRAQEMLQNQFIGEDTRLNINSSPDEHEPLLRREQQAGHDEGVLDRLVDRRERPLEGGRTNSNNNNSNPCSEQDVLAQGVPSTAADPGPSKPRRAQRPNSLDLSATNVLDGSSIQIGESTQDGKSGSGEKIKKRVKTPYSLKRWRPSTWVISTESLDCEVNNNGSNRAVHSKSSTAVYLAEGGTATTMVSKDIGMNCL

The target of assay [3] is Serine/threonine-protein kinase MRCK beta (Homo sapiens, UniProt Q9Y5S2).
Chain of Serine/threonine-protein kinase MRCK beta (Q9Y5S2 whole entry): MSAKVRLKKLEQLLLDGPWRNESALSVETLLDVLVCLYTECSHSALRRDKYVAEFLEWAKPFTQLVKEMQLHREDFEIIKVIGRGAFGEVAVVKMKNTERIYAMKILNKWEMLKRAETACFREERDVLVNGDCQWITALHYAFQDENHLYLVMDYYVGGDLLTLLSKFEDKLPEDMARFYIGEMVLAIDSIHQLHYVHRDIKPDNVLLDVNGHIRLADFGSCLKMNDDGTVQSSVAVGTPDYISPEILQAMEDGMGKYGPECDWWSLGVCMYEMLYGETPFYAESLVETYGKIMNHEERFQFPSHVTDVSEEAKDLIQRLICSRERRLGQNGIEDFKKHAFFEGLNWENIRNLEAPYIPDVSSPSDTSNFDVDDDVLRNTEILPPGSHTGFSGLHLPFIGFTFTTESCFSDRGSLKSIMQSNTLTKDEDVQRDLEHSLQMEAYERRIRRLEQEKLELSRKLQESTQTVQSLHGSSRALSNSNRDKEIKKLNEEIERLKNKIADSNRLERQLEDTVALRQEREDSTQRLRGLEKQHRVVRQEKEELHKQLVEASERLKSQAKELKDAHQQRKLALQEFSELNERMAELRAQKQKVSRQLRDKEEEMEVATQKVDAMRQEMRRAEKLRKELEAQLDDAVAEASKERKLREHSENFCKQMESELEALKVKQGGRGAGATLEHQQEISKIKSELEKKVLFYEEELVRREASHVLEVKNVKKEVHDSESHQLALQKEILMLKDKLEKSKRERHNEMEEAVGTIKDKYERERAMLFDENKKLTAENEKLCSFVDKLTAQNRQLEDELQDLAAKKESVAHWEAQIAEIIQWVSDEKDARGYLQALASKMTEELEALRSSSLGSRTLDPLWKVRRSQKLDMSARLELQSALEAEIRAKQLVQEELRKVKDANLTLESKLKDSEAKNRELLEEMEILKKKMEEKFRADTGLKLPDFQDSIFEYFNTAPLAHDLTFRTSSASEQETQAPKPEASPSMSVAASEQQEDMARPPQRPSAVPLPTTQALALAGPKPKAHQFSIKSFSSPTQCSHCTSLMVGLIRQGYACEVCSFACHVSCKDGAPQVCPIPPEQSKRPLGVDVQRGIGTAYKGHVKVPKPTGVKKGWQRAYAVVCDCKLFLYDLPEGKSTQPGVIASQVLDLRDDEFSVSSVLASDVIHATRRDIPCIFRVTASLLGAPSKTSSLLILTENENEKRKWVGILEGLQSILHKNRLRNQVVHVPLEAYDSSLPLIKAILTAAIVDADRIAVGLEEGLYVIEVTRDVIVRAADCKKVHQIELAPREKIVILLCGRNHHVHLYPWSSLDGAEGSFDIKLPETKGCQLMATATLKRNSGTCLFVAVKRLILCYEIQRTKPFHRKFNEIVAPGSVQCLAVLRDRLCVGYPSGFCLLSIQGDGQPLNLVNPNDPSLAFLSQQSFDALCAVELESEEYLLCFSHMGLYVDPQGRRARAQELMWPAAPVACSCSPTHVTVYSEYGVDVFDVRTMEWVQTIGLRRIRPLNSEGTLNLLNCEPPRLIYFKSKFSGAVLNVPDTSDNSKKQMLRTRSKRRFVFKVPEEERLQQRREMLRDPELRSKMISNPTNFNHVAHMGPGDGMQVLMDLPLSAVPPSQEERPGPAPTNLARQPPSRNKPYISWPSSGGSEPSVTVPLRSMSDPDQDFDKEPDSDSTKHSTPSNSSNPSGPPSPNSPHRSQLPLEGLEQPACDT
Assay [4] has as its target Casein kinase II subunit alpha' (Homo sapiens, UniProt P19784).
The next assay has as its target Ephrin type-A receptor 4 (Homo sapiens, UniProt P54764).
In assay [5] the target is Glycogen synthase kinase-3 alpha (Homo sapiens, UniProt P49840).
Chain of Glycogen synthase kinase-3 alpha (P49840 whole entry): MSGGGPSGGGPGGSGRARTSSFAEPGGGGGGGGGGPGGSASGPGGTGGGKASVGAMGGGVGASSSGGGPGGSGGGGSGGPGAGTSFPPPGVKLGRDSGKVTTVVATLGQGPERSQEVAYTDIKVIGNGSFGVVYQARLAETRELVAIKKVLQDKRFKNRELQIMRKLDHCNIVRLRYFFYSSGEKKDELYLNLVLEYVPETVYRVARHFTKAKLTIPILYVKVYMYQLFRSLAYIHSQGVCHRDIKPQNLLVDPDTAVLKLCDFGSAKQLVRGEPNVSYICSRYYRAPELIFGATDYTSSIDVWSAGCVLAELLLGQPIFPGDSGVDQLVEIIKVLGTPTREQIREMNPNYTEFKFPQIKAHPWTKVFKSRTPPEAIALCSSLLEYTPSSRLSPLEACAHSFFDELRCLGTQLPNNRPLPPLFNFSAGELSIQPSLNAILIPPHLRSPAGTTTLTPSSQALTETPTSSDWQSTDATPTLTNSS
Another assay has as its target Midasin (Homo sapiens, UniProt Q9NU22).
The target of assay [6] is Serine/threonine-protein kinase 16 (Homo sapiens, UniProt O75716).
Chain of Serine/threonine-protein kinase 16 (O75716 whole entry): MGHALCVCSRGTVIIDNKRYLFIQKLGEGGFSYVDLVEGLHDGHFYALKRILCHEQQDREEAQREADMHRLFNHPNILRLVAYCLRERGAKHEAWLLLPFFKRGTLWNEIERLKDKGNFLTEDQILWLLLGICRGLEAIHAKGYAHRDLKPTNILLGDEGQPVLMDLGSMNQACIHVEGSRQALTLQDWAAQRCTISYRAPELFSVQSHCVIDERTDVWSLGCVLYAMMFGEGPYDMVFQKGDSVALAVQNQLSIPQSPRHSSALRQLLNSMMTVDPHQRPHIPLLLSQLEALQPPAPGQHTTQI
Assay [7] addresses T4, Serine/threonine-protein kinase ULK3 (Homo sapiens, UniProt Q6PHR2).
T4 sequence (Q6PHR2 whole entry): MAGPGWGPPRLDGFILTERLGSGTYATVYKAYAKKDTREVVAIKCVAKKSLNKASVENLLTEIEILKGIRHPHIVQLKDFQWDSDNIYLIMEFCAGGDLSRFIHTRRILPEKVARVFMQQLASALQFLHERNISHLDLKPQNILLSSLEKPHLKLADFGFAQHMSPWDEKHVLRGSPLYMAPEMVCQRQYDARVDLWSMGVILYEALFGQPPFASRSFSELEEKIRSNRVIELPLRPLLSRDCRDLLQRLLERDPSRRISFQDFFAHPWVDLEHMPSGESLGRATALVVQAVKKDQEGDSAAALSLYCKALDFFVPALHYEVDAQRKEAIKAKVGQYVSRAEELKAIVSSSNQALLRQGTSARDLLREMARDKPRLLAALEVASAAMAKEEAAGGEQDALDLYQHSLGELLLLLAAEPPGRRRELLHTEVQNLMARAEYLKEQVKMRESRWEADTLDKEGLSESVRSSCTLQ
Note: in the data inactive means no Kd found up to 30 µM.

Chain of Casein kinase II subunit alpha' (P19784 whole entry): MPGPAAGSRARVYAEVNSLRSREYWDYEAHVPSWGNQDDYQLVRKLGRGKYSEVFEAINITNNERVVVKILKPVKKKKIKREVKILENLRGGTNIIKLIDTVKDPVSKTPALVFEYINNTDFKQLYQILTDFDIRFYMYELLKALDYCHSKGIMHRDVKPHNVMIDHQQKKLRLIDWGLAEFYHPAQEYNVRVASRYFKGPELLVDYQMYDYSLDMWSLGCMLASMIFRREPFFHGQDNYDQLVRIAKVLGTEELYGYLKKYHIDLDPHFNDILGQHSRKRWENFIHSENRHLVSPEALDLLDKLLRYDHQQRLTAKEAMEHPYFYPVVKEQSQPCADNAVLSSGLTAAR
Chain of Ephrin type-A receptor 4 (P54764 whole entry): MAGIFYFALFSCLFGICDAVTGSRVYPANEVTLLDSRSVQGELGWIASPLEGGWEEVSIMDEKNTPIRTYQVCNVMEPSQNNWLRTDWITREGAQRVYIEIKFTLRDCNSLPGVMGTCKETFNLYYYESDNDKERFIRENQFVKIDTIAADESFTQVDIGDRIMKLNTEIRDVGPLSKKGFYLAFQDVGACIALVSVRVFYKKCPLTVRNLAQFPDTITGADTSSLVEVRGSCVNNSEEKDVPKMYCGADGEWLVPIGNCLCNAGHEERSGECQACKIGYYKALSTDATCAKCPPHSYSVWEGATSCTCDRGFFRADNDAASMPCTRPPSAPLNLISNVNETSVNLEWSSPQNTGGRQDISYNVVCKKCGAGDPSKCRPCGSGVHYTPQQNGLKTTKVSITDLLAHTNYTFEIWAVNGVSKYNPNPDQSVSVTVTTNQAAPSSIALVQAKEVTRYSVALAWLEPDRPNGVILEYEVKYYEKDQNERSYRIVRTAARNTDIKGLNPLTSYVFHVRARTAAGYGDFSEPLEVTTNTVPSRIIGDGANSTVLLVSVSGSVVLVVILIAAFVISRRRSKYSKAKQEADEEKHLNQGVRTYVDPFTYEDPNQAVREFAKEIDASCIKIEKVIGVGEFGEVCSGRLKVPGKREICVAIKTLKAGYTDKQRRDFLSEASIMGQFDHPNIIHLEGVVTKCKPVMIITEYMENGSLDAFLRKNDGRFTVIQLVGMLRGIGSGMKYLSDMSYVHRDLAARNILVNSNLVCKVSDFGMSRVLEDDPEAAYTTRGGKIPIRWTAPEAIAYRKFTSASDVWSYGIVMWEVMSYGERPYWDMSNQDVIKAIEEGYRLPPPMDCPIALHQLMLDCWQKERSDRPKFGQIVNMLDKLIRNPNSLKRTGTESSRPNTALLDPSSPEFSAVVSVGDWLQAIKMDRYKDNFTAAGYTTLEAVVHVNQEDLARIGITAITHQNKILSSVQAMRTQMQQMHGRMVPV

Take `Cn1ncc(Cl)c1-c1cc(C(=O)N[C@H](CN)Cc2ccc(F)c(F)c2)oc1Cl` [UPROSERTIB]: the Kd (at Activin receptor type-1; in assay [1]; in assay [2]; in assay [3]; in assay [4]; on Ephrin type-A receptor 4) was > 30 µM (inactive) in each case. Also, the Kd (in assay [5]; at Midasin; in assay [6]; in [7]) was > 30 µM (inactive) throughout.
On to `CC(C)c1cc(CNc2nc(Nc3cc(C4CC4)[nH]n3)cc(N3CCN(C)CC3)n2)on1` [XL-228], for which the Kd was 0.005 µM (active) at Activin receptor type-1; > 30 µM (inactive) in assay [1]; > 30 µM (inactive) in [2]; > 30 µM (inactive) in assay [3]; 2.44 µM (active) in assay [4]; 0.167 µM (active) on Ephrin type-A receptor 4. Besides, the Kd in assay [5] is > 30 µM (inactive); on Midasin, > 30 µM (inactive); in assay [6], > 30 µM (inactive); in [7], 0.492 µM (active).
Consider `C[C@@H](N)c1ccc(C(=O)Nc2ccnc3[nH]ccc23)cc1` [Y-39983], for which the Kd on Activin receptor type-1 was > 30 µM (inactive); in [1], > 30 µM (inactive); in assay [2] it was > 30 µM (inactive); in assay [3], 0.034 µM (active); in assay [4], 2.74 µM (active); at Ephrin type-A receptor 4 it was > 30 µM (inactive). In addition, the Kd in assay [5] is 1.1 µM (active); on Midasin, > 30 µM (inactive); in [6] it was > 30 µM (inactive); in assay [7], > 30 µM (inactive).
For `CN1C/C=C/CCOc2cccc(c2)-c2ccnc(n2)Nc2cccc(c2)C1` [ZOTIRACICLIB], the Kd is > 30 µM (inactive) on Activin receptor type-1; > 30 µM (inactive) in assay [2]; 2.3 µM (active) in [4]; > 30 µM (inactive) at Ephrin type-A receptor 4; 0.579 µM (active) in [5]; > 30 µM (inactive) on Midasin. Also, the Kd in assay [6] and in assay [7] was > 30 µM (inactive) in each case. In addition, the pKd was 7.64 in assay [1] and 4.33 in [3].

As usually defined, the Kd is the free concentration of one partner at which half of the binding sites on the other are occupied at equilibrium, for simple one-to-one binding. As usually defined, the pKd is −log10 of the Kd, conventionally taken in molar units. High values mean a low Kd, low ones a high Kd.
